Data reported in paper PMC7366380, “Discovery of a Potent and Selective Covalent Inhibitor and Activity-Based Probe for the Deubiquitylating Enzyme UCHL1, with Antifibrotic Activity” (Journal of the American Chemical Society, 2020).
Values joined by “and” are separate entries in the source; they are usually repeats but may differ in a detail not shown here. Equal entries are not always repeated.

Assays:
USP35 = molecular target: T1, USP35 (Homo sapiens, UniProt Q9P2H5); test: Biochemical DUB selectivity profiling assay: USP35; settings: Ub-Lys-TAMRA 50 nM, buffer B; read-out: Biochemical IC50 range, USP35
T1 sequence (Q9P2H5 1-1018): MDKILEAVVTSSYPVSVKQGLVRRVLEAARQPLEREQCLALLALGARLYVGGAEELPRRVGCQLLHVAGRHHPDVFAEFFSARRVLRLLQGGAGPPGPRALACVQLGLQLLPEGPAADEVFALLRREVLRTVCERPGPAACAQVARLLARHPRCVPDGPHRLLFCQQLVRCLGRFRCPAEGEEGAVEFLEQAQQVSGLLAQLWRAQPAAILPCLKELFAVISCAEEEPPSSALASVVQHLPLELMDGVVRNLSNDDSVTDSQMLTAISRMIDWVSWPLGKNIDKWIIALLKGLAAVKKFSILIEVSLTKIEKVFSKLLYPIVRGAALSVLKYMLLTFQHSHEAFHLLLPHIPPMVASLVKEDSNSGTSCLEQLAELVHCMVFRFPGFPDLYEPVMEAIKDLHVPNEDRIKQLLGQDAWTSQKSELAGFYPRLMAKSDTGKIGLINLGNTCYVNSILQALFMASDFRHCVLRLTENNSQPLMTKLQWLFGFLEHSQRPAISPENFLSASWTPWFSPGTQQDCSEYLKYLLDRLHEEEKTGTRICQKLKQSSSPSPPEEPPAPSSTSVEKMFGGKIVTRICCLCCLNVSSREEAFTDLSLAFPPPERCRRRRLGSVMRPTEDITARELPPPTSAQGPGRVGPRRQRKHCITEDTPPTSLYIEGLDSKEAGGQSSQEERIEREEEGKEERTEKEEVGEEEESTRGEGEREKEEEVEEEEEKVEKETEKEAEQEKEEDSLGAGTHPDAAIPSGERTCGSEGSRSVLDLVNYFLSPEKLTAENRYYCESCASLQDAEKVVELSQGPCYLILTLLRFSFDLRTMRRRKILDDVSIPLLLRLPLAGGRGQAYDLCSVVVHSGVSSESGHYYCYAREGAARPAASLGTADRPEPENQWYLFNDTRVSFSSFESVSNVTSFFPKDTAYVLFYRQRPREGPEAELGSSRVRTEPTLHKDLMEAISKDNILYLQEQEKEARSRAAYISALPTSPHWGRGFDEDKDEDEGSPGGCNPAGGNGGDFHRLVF
Protocol: (§1) DUB Assay Substrate Substrate
(§2) Buffer Concentration (nM) […]
(§3) Sepharose® 4B resin (GE Healthcare).
(§4) 10 kDa molecular weight cut-off (MWCO)).
(§5) Fractions containing protein
(§6) Protein concentration was […]
(§7) reaction volume of 21 μL. […]
(§8) compound (final concentration 5 nM).
(§9) IC50 values were determined
(§10) Biochemical DUB selectivity profiling assays […]
(§11) in 40 µL total reaction volume.

USP30 = molecular target: T2, USP30 (Homo sapiens, UniProt Q70CQ3); test: biochemical
T2 sequence (Q70CQ3 1-517): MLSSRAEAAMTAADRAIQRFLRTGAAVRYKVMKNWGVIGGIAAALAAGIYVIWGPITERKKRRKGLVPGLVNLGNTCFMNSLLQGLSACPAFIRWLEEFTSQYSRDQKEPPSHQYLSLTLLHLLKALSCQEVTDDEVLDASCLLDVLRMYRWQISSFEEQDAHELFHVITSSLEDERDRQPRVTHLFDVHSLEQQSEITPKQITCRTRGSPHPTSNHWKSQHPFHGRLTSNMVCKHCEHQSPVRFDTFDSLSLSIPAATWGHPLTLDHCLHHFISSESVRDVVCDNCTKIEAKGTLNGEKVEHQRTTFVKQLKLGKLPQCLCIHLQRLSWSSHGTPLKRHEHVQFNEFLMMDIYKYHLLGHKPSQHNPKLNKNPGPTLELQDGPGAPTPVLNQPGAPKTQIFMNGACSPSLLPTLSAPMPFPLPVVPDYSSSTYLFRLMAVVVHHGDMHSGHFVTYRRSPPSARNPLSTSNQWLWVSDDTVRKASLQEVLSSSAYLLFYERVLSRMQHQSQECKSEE

UCHL3 [1] = molecular target: T3, UCHL3 (Homo sapiens, UniProt P15374); test: In-cell proteome-wide competitive ABPP, HEK293: UCHL3; settings: for Log2 reporter intensity values: UCHL3: DMSO substract (FC); for Log2 reporter intensity values: UCHL3 / Log2 reporter intensity values: replicates A-C; for Log2 reporter intensity values: UCHL3, DMSO subtracted
T3 sequence (P15374 1-230): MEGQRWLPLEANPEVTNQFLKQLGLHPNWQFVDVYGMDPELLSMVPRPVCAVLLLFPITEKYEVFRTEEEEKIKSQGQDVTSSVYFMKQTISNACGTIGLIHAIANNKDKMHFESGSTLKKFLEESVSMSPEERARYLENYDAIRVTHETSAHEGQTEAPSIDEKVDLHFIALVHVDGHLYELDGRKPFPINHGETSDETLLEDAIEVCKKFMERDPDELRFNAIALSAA

UCHL3 [2] = molecular target: T3, UCHL3; test: Biochemical DUB selectivity profiling assay: UCHL3; settings: Ub-Lys-TAMRA 50 nM, buffer A; read-out: Biochemical IC50 range, UCHL3
Protocol: as §1, §2, §3, §4, §5, §6, §7, §8, §9, §10, §11

USP1 = USP1 (Homo sapiens, UniProt O94782); test: biochemical
[3] = test system: primary human bronchial fibroblasts from IPF patients (TGF-β1-triggered αSMA); test: Fibroblast-to-myofibroblast transition (FMT) assay, αSMA by high content analysis; settings: for αSMA inhibition / transdifferentiation (in words): IPF donor fibroblasts, TGF-β1, 3 days, high content imaging; for IC50: Homo sapiens, Fibroblast, 72 h, read-out: αSMA inhibition IC50 (95% CI)

USP1, sequence (O94782 whole entry, species assumed): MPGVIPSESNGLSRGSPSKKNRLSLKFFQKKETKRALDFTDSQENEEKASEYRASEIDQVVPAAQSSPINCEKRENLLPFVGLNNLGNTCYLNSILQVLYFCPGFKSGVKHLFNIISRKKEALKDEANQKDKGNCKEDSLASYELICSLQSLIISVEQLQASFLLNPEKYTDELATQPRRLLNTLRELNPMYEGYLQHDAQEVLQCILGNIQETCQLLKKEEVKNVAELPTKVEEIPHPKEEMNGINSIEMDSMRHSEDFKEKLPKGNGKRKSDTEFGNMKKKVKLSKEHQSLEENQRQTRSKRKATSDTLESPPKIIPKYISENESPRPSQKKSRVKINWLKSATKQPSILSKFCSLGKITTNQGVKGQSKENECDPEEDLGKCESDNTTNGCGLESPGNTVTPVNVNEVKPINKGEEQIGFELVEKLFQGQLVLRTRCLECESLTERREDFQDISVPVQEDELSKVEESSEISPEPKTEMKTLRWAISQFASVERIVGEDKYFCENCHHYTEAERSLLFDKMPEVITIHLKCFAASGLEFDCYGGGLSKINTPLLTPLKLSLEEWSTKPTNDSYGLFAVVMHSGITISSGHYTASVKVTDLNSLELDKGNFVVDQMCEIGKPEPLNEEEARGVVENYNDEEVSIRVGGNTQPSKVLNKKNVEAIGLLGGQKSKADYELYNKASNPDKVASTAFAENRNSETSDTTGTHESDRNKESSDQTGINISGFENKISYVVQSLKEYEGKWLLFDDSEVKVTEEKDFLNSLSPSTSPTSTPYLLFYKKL
USP1, sequence (Q8TAF3 whole entry partner, species assumed): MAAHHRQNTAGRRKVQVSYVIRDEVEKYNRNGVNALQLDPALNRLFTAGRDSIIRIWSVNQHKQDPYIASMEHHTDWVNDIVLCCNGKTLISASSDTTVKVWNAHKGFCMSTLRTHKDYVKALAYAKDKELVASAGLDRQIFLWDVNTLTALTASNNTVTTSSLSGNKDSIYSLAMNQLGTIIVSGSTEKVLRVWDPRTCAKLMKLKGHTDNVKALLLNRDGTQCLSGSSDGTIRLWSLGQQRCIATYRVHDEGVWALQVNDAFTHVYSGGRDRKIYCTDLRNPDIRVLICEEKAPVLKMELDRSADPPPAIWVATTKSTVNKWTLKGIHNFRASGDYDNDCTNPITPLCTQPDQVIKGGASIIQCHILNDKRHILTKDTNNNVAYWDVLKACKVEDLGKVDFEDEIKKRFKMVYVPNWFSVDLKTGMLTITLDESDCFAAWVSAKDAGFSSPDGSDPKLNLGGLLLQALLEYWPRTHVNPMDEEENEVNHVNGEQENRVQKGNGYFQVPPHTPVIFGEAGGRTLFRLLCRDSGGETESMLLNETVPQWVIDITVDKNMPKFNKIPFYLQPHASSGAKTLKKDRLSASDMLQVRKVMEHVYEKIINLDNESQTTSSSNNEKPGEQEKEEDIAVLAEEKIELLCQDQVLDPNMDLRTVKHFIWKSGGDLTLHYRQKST

N#CN1CCC[C@H]1C(=O)N1CCc2c(-c3c[nH]c4ncccc34)cccc21 [Compound 1]
IC50 (USP35): > 10 µM
IC50 (USP30): 1 to 10 µM
Log2 reporter intensity values: UCHL3 (UCHL3 [1]; 1 at 1 μM, competition with ABP 2): 0.8904 and 1.311 and 0.2787
Log2 reporter intensity values: UCHL3 (UCHL3 [1]; 1 at 4 μM, competition with ABP 2): 0.7742 and 0.7243 and 0.9234
UCHL3 response in proteome-wide competitive ABPP (UCHL3 [1]; HEK293, compound 60 min, then 2 (20 nM) 10 min): small response
Log2 reporter intensity values (UCHL3 [1]; 1_1 μM): -0.1178 and 0.3024 and -0.7296
Log2 reporter intensity values (UCHL3 [1]; 1_4 μM): -0.234 and -0.284 and -0.08483
Log2 reporter intensity values (UCHL3 [1]; 1 at 1 μM): -0.1675 and 0.3902 and -1.8434
Log2 reporter intensity values (UCHL3 [1]; 1 at 4 μM): -0.3692 and -0.4654 and -0.115
IC50 (UCHL3 [2]): 1 to 10 µM
IC50 (USP1): > 10 µM
αSMA inhibition / transdifferentiation (in words) [3]: inhibit transdifferentiation

C#Cc1cnc2[nH]cc(-c3cccc4c3CCN4C(=O)[C@@H]3CCCN3C#N)c2c1 [Compound 2]
IC50 (USP35): > 10 µM
Log2 reporter intensity values: UCHL3 (UCHL3 [1]; 20 nM ABP 2 alone): 2.007 and 1.656 and 1.566
Log2 reporter intensity values (UCHL3 [1]; 20 nM ABP 2): 1.005 and 0.7277 and 0.6472 and 0.9988 and 0.6478 and 0.5579
IC50 (UCHL3 [2]): 1 to 10 µM
αSMA inhibition / transdifferentiation (in words) [3]: inhibit transdifferentiation

N#CN1CCC[C@@H]1C(=O)N1CCc2c(-c3c[nH]c4ncccc34)cccc21 [Compound 3]
IC50 (USP35): > 10 µM
IC50 (USP30): > 10 µM
Log2 reporter intensity values: UCHL3 (UCHL3 [1]; 3 at 1 μM, competition with ABP 2): 1.501 and 1.531 and 1.889
Log2 reporter intensity values: UCHL3 (UCHL3 [1]; 3 at 4 μM, competition with ABP 2): 1.509 and 1.358 and 1.681
Log2 reporter intensity values (UCHL3 [1]; 3_1 μM): 0.4924 and 0.5226 and 0.8806
Log2 reporter intensity values (UCHL3 [1]; 3_4 μM): 0.5004 and 0.3501 and 0.6732
Log2 reporter intensity values (UCHL3 [1]; 3 at 1 μM): 0.5856 and 0.6143 and 0.9175
Log2 reporter intensity values (UCHL3 [1]; 3 at 4 μM): 0.5932 and 0.4418 and 0.7497
IC50 (UCHL3 [2]): > 10 µM
IC50 (USP1): > 10 µM
IC50 [3]: 2 µM
αSMA inhibition / transdifferentiation (in words) [3]: not and minimal αSMA inhibition

CC(=O)O/N=C1\C(=O)N(Cc2cc(Cl)ccc2Cl)c2ccc(Cl)cc21 [LDN-57444, reference compound]
IC50 (USP35): > 10 µM
IC50 (USP30): > 10 µM
IC50 (UCHL3 [2]): > 10 µM
IC50 (USP1): > 10 µM
IC50 [3]: 3.7 µM
αSMA inhibition / transdifferentiation (in words) [3]: not and weak αSMA inhibition

CC(=O)O/N=C1\C(=O)N(Cc2cc(Cl)ccc2Cl)c2ccc(Cl)cc21 [LDN]
Log2 reporter intensity values: UCHL3 (UCHL3 [1]; LDN at 5 μM, competition with ABP 2): 1.511 and 1.383 and 1.619
Log2 reporter intensity values: UCHL3 (UCHL3 [1]; LDN at 25 μM, competition with ABP 2): 1.505 and 1.419 and 1.696
Log2 reporter intensity values (UCHL3 [1]; LDN at 5 μM): 0.5958 and 0.4677 and 0.6949
Log2 reporter intensity values (UCHL3 [1]; LDN at 25 μM): 0.5899 and 0.5052 and 0.7625
Log2 reporter intensity values (UCHL3 [1]; LDN_5 μM): 0.5031 and 0.3746 and 0.6105
Log2 reporter intensity values (UCHL3 [1]; LDN_25 μM): 0.4969 and 0.4111 and 0.6882
